The results in this text go back to patent US6500811B2, “Sulfonylaminophosphinic and sulfonylaminophosphonic acid derivatives, methods for their preparation and use” (Aventis Pharma Deutschland GmbH, priority 1998, dated 2002).

Structures are written as SMILES.

Common to all, as to format: biochemical
One assay deals with T1, stromelysin (MMP-3) (Homo sapiens, UniProt P08254).
T1 construct: enzymatic activity of the catalytic domain of human stromelysin; made in house
Description: Enzymatic activity of the catalytic domain of human stromelysin, fluorogenic substrate. Particulars: pH 6.5, 15 min preincubation. How it is done: (§1) Preparation and determination of the enzymatic activity of the catalytic domain of human stromelysin and of neutrophil collagenase.
(§2) The two enzymes—stromelysin (“MMP-3”) and neutrophil collagenase (“MMP-8”)—were prepared according to Ye et al., 31 BIOCHEMISTRY 11231 (1992). For the measurement of the enzyme activity or of the enzyme inhibitor action, 70 μl of buffer solution and 10 μl of enzyme solution are incubated for 15 minutes with 10 μl of a 10% strength (v/v) aqueous dimethyl sulfoxide solution which optionally contains the enzyme inhibitor. After addition of 10 μl of a 10% strength (v/v) aqueous dimethyl sulfoxide solution which contains 1 mmol/l of the substrate, the enzyme reaction is monitored by fluorescence spectroscopy (328 nm (ex)/393 nm(em)).
(§3) The enzyme activity is shown as extinction increase/minute. The IC50 values listed in Table 2 are determined as those inhibitor concentrations which in each case lead to a 50% inhibition of the enzyme.
(§4) The buffer solution contains 0.05% Brij (Sigma, Deisenhofen, Germany) and 0.1 mol/l of tris/HCl, 0.1 mol/l of NaCl, 0.01 mol/l of CaCl2 and 0.1 mol/l of piperazine-N,N′-bis[2-ethanesulfonic acid] (pH=6.5).
(§5) The enzyme solution contains 5 μg/ml of one of the enzyme domains prepared according to Ye et al. The substrate solution contains 1 mmol/l of the fluorogenic substrate (7-methoxycoumarin4-yl)acetyl-Pro-Leu-Gly-Leu-3-(2′,4′-dinitrophenyl)-L-2,3-diaminopropionyl-Ala-Arg-NH2 (Bachem, Heidelberg, Germany).

Assay [1] has as its target T2, neutrophil collagenase (MMP-8) (Homo sapiens, UniProt P22894).
T2 construct: catalytic domain of human stromelysin and of neutrophil collagenase; made in house
Nature of the assay: Enzymatic activity of the catalytic domain of neutrophil collagenase, fluorogenic substrate. Particulars: pH 6.5, 15 min preincubation. How it is done: as §1, §2, §3, §4, §5

A further assay has as its system aggrecanase. Nature of the assay: Aggrecanase activity from rat chondrosarcoma cell supernatant, rAgg1mut cleavage detected by BC-3 Western blot. The note with it: RCS cell culture supernatant, 1 h preincubation, 4 h incubation with rAgg1mut. How it is done: Preparation and determination of the enzymatic activity of the catalytic domain of aggrecanase using rat chondrosarcoma cells:
For the generation of the as yet not identified “aggrecanase” activity, rat chondrosarcoma cells (RCS) were used. Lark et al.; 270 J. BIOL. CHEM. 2550 (1995). These cells were inoculated into 96-well cell culture plates precoated with poly-L-lysine (80,000 cells/well). After stimulation of the RCS cells with retinoic acid (0.67 μM) and an incubation time of 47 hours (h) at 37° C. and 5% CO2, these cells generate the “aggrecanase” activity. The test substance compound 1 was then preincubated for 1 h in the “aggrecanase”-containing cell culture supernatant before 5 μg of eucaryotic rAgg1mut (Buttner et al., 333 BIOCHEM. J. 159 (1998); Hughes et al., 272 J. BIOL. CHEM. 20269 (1997)) were added for the detection of the “aggrecanase” cleavage activity in the cell culture supernatant of the RCS cells. After an incubation time of 4 h, the cell culture supernatant was removed and the cleavage products of the rAgg1mut fusion proteins generated by the “aggrecanase” activity were detected by means of SDS-polyacrylamide gel electrophoresis and Western Blot analyses with the monoclonal antibody BC-3. Hughes et al., 305 BIOCHEM. J. 799 (1995). […] The less cleaved rAgg1mut was detected, the more efficacious was the tested compound of the formula I.
The IC50 values listed in Table 3 are determined as those inhibitor concentrations which in each case led to a 50% inhibition of the enzyme aggrecanase.
On the technique in general: In western blotting, separated proteins are transferred to a membrane and probed.

T2 sequence (P22894 100-262 limits assumed): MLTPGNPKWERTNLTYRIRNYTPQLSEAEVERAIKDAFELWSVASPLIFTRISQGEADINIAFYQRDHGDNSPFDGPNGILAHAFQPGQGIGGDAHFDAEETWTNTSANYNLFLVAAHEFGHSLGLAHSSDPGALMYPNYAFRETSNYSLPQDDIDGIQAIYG
T1 sequence (P08254 100-272 limits assumed): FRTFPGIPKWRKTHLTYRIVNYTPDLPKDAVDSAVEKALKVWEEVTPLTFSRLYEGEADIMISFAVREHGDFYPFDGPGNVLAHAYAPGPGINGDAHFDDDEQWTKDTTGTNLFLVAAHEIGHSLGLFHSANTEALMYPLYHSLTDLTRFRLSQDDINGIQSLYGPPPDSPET

The IC50 is the concentration that gives 50% inhibition. Low values mean greater potency in that assay, high ones weaker potency in that assay. As for `CC(C)[C@@H](NS(=O)(=O)c1ccc(-c2ccc(Cl)cc2)cc1)P(=O)(O)O` [Example 18], the 50% inhibitory concentration (IC50) at stromelysin (MMP-3) was found to be 10000 nM; in assay [1], 1000 nM; with aggrecanase, 60000 nM.
As to `O=C(O)C(CP(=O)(O)O)NS(=O)(=O)c1ccc(-c2ccc(Cl)cc2)cc1` (stereo not drawn) [Example 12], the half-maximal inhibitory concentration (IC50) with aggrecanase came to 50000 nM. That is a double-digit micromolar value.
In the case of `CC(C)[C@H](NS(=O)(=O)c1ccc(-c2ccc(N3CCCC3)cc2)cc1)P(=O)(O)O` [Example 19], the IC50 was 5 nM against stromelysin (MMP-3) and 2 nM in assay [1].
With `COP(=O)(OC)C(O)CC(NS(=O)(=O)c1ccc(-c2ccc(Cl)cc2)cc1)c1ccc(C(F)(F)F)cc1` (stereo not drawn) [Example 10], in the assay with aggrecanase, inhibition was half-maximal at 2100 nM (IC50). In other words, the single-digit micromolar range.
Compound `O=C(O)C(CP(=O)(O)O)NS(=O)(=O)c1ccc(-c2ccc(N3CCCC3)cc2)cc1` (stereo not drawn) [Example 17] showed an IC50 with aggrecanase of 69000 nM.
`O=C(O)C(CCP(=O)(O)O)NS(=O)(=O)c1ccc(-c2ccc(Cl)cc2)cc1` (stereo not drawn) [Example 14] displayed an IC50 with aggrecanase of 55000 nM. This IC50 and that of the compound before are within 1.5-fold of each other.
Take `CC(NS(=O)(=O)CCc1ccc(-c2ccc(Cl)cc2)cc1)P(=O)(O)O` (stereo not drawn) [Example 20]: the values for the IC50 (on stromelysin (MMP-3); in assay [1]; with aggrecanase) were 8 nM, 2 nM and 4700 nM, respectively.
On to `CC(NS(=O)(=O)c1ccc(-c2ccc(N3CCCC3)cc2)cc1)P(=O)(O)O` (stereo not drawn) [Example 22], for which the IC50 against stromelysin (MMP-3) was 20 nM; in assay [1], 20 nM; in the assay with aggrecanase, 8300 nM.
As to `CC(C)[C@H](NS(=O)(=O)CCc1ccc(-c2ccc(Cl)cc2)cc1)P(=O)(O)O` [Example 25], the values for the half-inhibitory concentration (IC50) (against stromelysin (MMP-3); in assay [1]) were 3 nM and 2 nM, respectively.
`O=C(O)C(CCC(NS(=O)(=O)c1ccc(-c2ccc(Cl)cc2)cc1)P(=O)(O)O)NS(=O)(=O)c1ccc(-c2ccc(Cl)cc2)cc1` (stereo not drawn) [Example 21] showed an IC50 with aggrecanase of 520 nM.
In turn, `O=P(O)(O)C(O)CC(NS(=O)(=O)c1ccc(-c2ccc(Cl)cc2)cc1)c1ccccc1` (stereo not drawn) [Example 8] registered an IC50 in the assay on aggrecanase of 15000 nM.
Take `CC(C)CC(NS(=O)(=O)c1ccc(-c2ccc(Cl)cc2)cc1)P(=O)(O)O` (racemic) [Example 6, (R,S)-[1-(4′-chlorobiphenyl-4-sulfonylamino)-3-methylbutyl]-phosphonic acid]: the half-inhibitory concentration (IC50) at stromelysin (MMP-3) turned out to be 30 nM; in assay [1], 3 nM; in the assay with aggrecanase, 2400 nM.
`O=P(O)(O)C(Cc1c[nH]c2ccccc12)NS(=O)(=O)c1ccc(-c2ccc(Cl)cc2)cc1` (racemic) [Example 4, (R,S)-[1-(4′-Chlorobiphenyl-4-sulfonylamino)-2-(1H-indol-3-yl)-ethyl]phosphonic acid]: the IC50 worked out at 500 nM against stromelysin (MMP-3), 60 nM in assay [1] and 12000 nM in the assay on aggrecanase.
For `O=P(O)(O)CCNS(=O)(=O)c1ccc(-c2ccc(Cl)cc2)cc1` [Example 13], half-maximal inhibition in the assay with aggrecanase (IC50) was put at 50000 nM.
Take `CC(C)[C@H](NS(=O)(=O)c1ccc(-c2ccc(Cl)cc2)cc1)P(=O)(O)O` [Example 1, (R)-[1-(4′-Chlorobiphenyl-4-sulfonylamino)-2-methylpropyl]-phosphonic acid]: the IC50 at stromelysin (MMP-3) was found to be 6 nM; in assay [1] it was 1 nM; with aggrecanase it was 600 nM.
For `CCOP(=O)(O)C(NS(=O)(=O)c1ccc(-c2ccc(Cl)cc2)cc1)c1ccccc1` (racemic) [Example 2, Monoethyl (R,S)-[1-(4′-chlorobiphenyl-4-sulfonylamino)-1-phenylmethyl]phosphonate], in that order: 5000 nM, 200 nM and 79000 nM.
For `CC(NS(=O)(=O)c1ccc(-c2ccc(Cl)cc2)cc1)P(=O)(O)O` (racemic) [Example 5, (R,S)-[1-(4′-Chlorobiphenyl-4-sulfonylamino)ethyl]phosphonic acid], in that order: 100 nM, 5 nM and 25000 nM.
`O=P(O)(O)CCNS(=O)(=O)c1ccc(-c2ccc(N3CCCC3)cc2)cc1` [Example 16] had an IC50 in the assay with aggrecanase of 28000 nM.
For the compound `O=P(O)(O)C(NS(=O)(=O)c1ccc(-c2ccc(Cl)cc2)cc1)c1ccccc1` (racemic) [Example 3, (R,S)-[(4′-Chlorobiphenyl-4-sulfonylamino)phenylmethyl]-phosphonic acid], the 50% inhibitory concentration (IC50) on stromelysin (MMP-3) came to 100 nM; in assay [1], 7 nM; in the assay on aggrecanase it was 22000 nM.
As to `CCOP(=O)(O)C(O)CC(NS(=O)(=O)c1ccc(-c2ccc(Cl)cc2)cc1)c1ccccc1` (stereo not drawn) [Example 15], in the assay on aggrecanase, 67000 nM corresponded to half-maximal inhibition (IC50).
For `CCCCOc1ccc(S(=O)(=O)N[C@@H](C(C)C)P(=O)(O)O)cc1` [Example 24], the half-maximal inhibitory concentration (IC50) was 400 nM against stromelysin (MMP-3) and 30 nM in assay [1].
